Measured values: patent US12629365B2, “Pharmaceutical compositions of 5-HT6 receptor antagonist” (SUVEN LIFE SCIENCES LIMITED, priority 2016, dated 2026)

Experiment: BCS classification
Type: physicochemical
Settings: based on our experimental results

COc1ccc2c(c1)c(CN1CCN(C)CC1)cn2S(=O)(=O)c1ccccc1Br [Compound 1, 1-[(2-Bromophenyl)sulfonyl]-5-methoxy-3-[(4-methyl-1-piperazinyl)methyl]-1H-indole dimesylate monohydrate]
BCS classification: class I
